# In patent US20080318970A1, “Treatment of Infectious Diseases” (priority 2004, published 2008):
# Legend:
# HIV-1 strain HTLV-IIIB = test: Inhibition of HIV-1 replication in MT4 cells (MTT assay); type: cell-based; settings: Human immunodeficiency virus 1, IIIB, 144 h; compound alone; MT4 cells, six days
# Experimental: Each experiment was repeated in tripleduplicate. MIC values represent the mean values of two separate experiments.
# The HIV-1 strain HTLV-IIIB were propagated in H9 cells at 37° C., 5% CO2 using RPMI 1640 with 10% heat-inactivated foetal calf serum (FCS) and antibiotics (growth medium). Culture supernatant was filtered ([…]), aliquotted, and stored at −80° C. until use. The HIV-1 strain was obtained from NIH AIDS Research and Reference Program.
# (§1) Compounds were examined for possible antiviral activity against strain 111B of HIV-1 using MT4 cells as target cells. MT4 cells were incubated with virus (0.005 MOI) and growth medium containing the test dilutions of compound(s) for six days in parallel with virus-infected and uninfected control cultures without compound added. Expression of HIV in the cultures was indirectly quantified using the MTT assay as previously described. Compounds mediating less than 30% reduction of HIV expression were considered without biological activity. Compounds were tested in parallel for cytotoxic effect in uninfected MT4 cultures containing the test dilutions of compound as described above. Cultures for test of both antiviral activity and cytotoxic effect were set up in tripleduplicates, […] per culture in micro titre plates.
# The 50% inhibitory concentration was determined by interpolation from the plots of percent inhibition versus concentration of compound.
# EC50 is defined as the effective concentration that inhibits 50% of viral production, 50% of viral infectivity, or 50% of the virus-induced cytopathic effect.
# [1] = Cytotoxic effect in uninfected MT4 cultures; type: cell-based; settings: human, uninfected MT4 cells; compound alone; uninfected MT4
# Experimental: as §1
# CC50 is defined as the inhibitory concentration that reduces cellular growth or viability of uninfected cells by 50%.
smiles,measurement,setting,value
"Cc1cn([C@H]2C[C@H](N=[N+]=[N-])[C@@H](CO)O2)c(=O)[nH]c1=O [AZT, 3′-Azido-3′-deoxythymidine, reference compound]",EC50,HIV-1 strain HTLV-IIIB,50 nM
same,CC50 at 6 days,[1],> 3000 nM
